Measured values as given in ChEMBL document CHEMBL5241092, “The antibacterial activity of fluoroquinolone derivatives: An update (2018-2021)” (2021).
≈ marks a conversion by molar mass, not a printed value.

Legend:
Staphylococcus aureus [1] = experiment: Antibacterial activity against Staphylococcus aureus; assay type: functional
Staphylococcus aureus [2] = experiment: Antibacterial activity against methicillin resistant Staphylococcus aureus; assay type: functional
Clostridioides difficile = experiment: Antibacterial activity against Clostridioides difficile; assay type: functional
Pseudomonas aeruginosa [3] = experiment: Antibacterial activity against quinolone susceptible Pseudomonas aeruginosa; assay type: functional
Escherichia coli [4] = experiment: Antibacterial activity against quinolone susceptible Escherichia coli; assay type: functional
Staphylococcus aureus [5] = experiment: Antibacterial activity against methicillin resistant Staphylococcus aureus reference strain; assay type: functional
Staphylococcus aureus [6] = experiment: Antibacterial activity against methicillin resistant Staphylococcus aureus clinical strain; assay type: functional
[7] = test system: Staphylococcus epidermidis; experiment: Antibacterial activity against Staphylococcus epidermidis; assay type: functional
Bacillus subtilis = experiment: Antibacterial activity against Bacillus subtilis; assay type: functional
Klebsiella pneumoniae = experiment: Antibacterial activity against Klebsiella pneumoniae; assay type: functional
Pseudomonas aeruginosa [8] = experiment: Antibacterial activity against Pseudomonas aeruginosa; assay type: functional
Micrococcus luteus = experiment: Antibacterial activity against Micrococcus luteus; assay type: functional
Pseudomonas aeruginosa [9] = experiment: Antibacterial activity against quinolone resistant Pseudomonas aeruginosa; assay type: functional
Acinetobacter baumannii = experiment: Antibacterial activity against quinolone resistant Acinetobacter baumannii; assay type: functional
Priestia megaterium = experiment: Antibacterial activity against Bacillus megaterium; assay type: functional
[10] = Antibacterial activity against Salmonella typhi; assay type: functional, Salmonella enterica subsp. enterica serovar Typhimurium; conditions: Salmonella enterica
Staphylococcus aureus [11] = experiment: Antibacterial activity against methicillin susceptible Staphylococcus aureus; assay type: functional
Escherichia coli [12] = experiment: Antibacterial activity against ciprofloxacin resistant Escherichia coli; assay type: functional
Staphylococcus aureus [13] = experiment: Antibacterial activity against ciprofloxacin resistant Staphylococcus aureus; assay type: functional
Chlamydia trachomatis = experiment: Antibacterial activity against Chlamydia trachomatis; assay type: functional
Vibrio cholerae = experiment: Antibacterial activity against Vibrio cholerae; assay type: functional
Shigella flexneri = experiment: Antibacterial activity against Shigella flexneri; assay type: functional
Citrobacter freundii = experiment: Antibacterial activity against Citrobacter freundii; assay type: functional
Escherichia coli [14] = experiment: Antibacterial activity against Escherichia coli; assay type: functional
Salmonella enteritidis = experiment: Antibacterial activity against Salmonella enteritidis; assay type: functional, Salmonella enterica subsp. enterica serovar Enteritidis; conditions: Salmonella enterica
Staphylococcus aureus [15] = experiment: Antibacterial activity against methicillin resistant Staphylococcus aureus 1; assay type: functional
Staphylococcus aureus [16] = experiment: Antibacterial activity against methicillin resistant Staphylococcus aureus 2; assay type: functional
Staphylococcus aureus [17] = experiment: Antibacterial activity against methicillin resistant Staphylococcus aureus 3; assay type: functional
Staphylococcus aureus [18] = experiment: Potency index, ratio of vancomycin MIC to test compound MIC for antibacterial activity against methicillin resistant Staphylococcus aureus 1; assay type: functional
Staphylococcus aureus [19] = experiment: Potency index, ratio of vancomycin MIC to test compound MIC for antibacterial activity against methicillin resistant Staphylococcus aureus 2; assay type: functional
Staphylococcus aureus [20] = experiment: Potency index, ratio of vancomycin MIC to test compound MIC for antibacterial activity against methicillin resistant Staphylococcus aureus 3; assay type: functional
Staphylococcus aureus [21] = experiment: Antibacterial activity against fluoroquinolone sensitive Staphylococcus aureus; assay type: functional
Staphylococcus aureus [22] = experiment: Antibacterial activity against fluoroquinolone/methicillin resistant Staphylococcus aureus; assay type: functional
Staphylococcus aureus [23] = experiment: Potency index, ratio of levofloxacin MIC to test compound MIC for antibacterial activity against fluoroquinolone/methicillin resistant Staphylococcus aureus; assay type: functional

## O=C(O)c1cn(C2CC2)c2cc(N3CCN(Cc4nc5ccc(Cl)cc5c(=O)[nH]4)CC3)c(F)cc2c1=O
Staphylococcus aureus [1]
  MIC: 0.016 µg/mL (≈ 0.0305 µM)
Staphylococcus aureus [2]
  MIC: 0.016 µg/mL (≈ 0.0305 µM)

## Cc1c(-c2cnc(N)c(C#N)c2)c(F)cc2c(=O)c(C(=O)O)cn(C3CC3)c12
Clostridioides difficile
  MIC50: 0.125 µg/mL (≈ 0.33 µM)
  MIC90: 0.5 µg/mL (≈ 1.32 µM)

## CNC1CN(c2c(F)cc3c(=O)c(C(=O)O)cn(-c4cc(N)c(F)cc4CO)c3c2Cl)C1
Pseudomonas aeruginosa [3]
  MIC: 0.008 µg/mL (≈ 0.0172 µM)
Escherichia coli [4]
  MIC: 0.008 µg/mL (≈ 0.0172 µM)

## O=C(O)c1cn(C2CC2)c2cc(N3CCN(Cc4cc5ccccc5cc4O)CC3)c(F)cc2c1=O
Staphylococcus aureus [5]
  MIC: 0.08 µg/mL (≈ 0.164 µM)
Staphylococcus aureus [6]
  MIC: 0.2 µg/mL (≈ 0.41 µM)

## CCOc1cc(OCC)nc(/N=N/N2CCN(c3c(F)cc4c(=O)c(C(=O)C(C(C)=O)C(=O)OC)cn(C5CC5)c4c3OC)CC2)n1 (stereo not drawn)
Staphylococcus aureus [1]
  MIC: 0.015 µg/mL (≈ 0.0229 µM)
[7]
  MIC: 0.015 µg/mL (≈ 0.0229 µM)
Bacillus subtilis
  MIC: 0.015 µg/mL (≈ 0.0229 µM)

## O=C(O)c1cn(C2CC2)c2cc(N3CCN(Cc4nc5cc(Cl)ccc5c(=O)[nH]4)CC3)c(F)cc2c1=O
Staphylococcus aureus [1]
  MIC: 0.016 µg/mL (≈ 0.0305 µM)
Staphylococcus aureus [2]
  MIC: 0.016 µg/mL (≈ 0.0305 µM)

## O=C(O)c1cn(C2CC2)c2cc(N3CCNCC3)c(F)cc2c1=O [CIPROFLOXACIN]
Klebsiella pneumoniae
  MIC: 0.15 µg/mL (≈ 0.453 µM)
Pseudomonas aeruginosa [8]
  MIC: 0.012 µg/mL (≈ 0.0362 µM)
Staphylococcus aureus [1]
  MIC: 0.015 µg/mL (≈ 0.0453 µM)
Micrococcus luteus
  MIC: 7.8 µg/mL (≈ 23.5 µM)
[7]
  MIC: 0.015 µg/mL (≈ 0.0453 µM)
Bacillus subtilis
  MIC: 0.015 µg/mL (≈ 0.0453 µM)
Pseudomonas aeruginosa [3]
  MIC: 0.008 µg/mL (≈ 0.0241 µM)
Pseudomonas aeruginosa [9]
  MIC: 16 µg/mL (≈ 48.3 µM)
Acinetobacter baumannii
  MIC: 16 µg/mL (≈ 48.3 µM)
Priestia megaterium
  MIC: 7.8 µg/mL (≈ 23.5 µM)
[10]
  MIC: 0.15 µg/mL (≈ 0.453 µM)
Staphylococcus aureus [11]
  MIC: 0.195 µg/mL (≈ 0.589 µM)
Escherichia coli [12]
  MIC: 20.5 µg/mL (≈ 61.9 µM)
Staphylococcus aureus [13]
  MIC: 20.5 µg/mL (≈ 61.9 µM)
Chlamydia trachomatis
  MBC: > 50 µg/mL
Vibrio cholerae
  MIC: 0.15 µg/mL (≈ 0.453 µM)
Shigella flexneri
  MIC: 0.15 µg/mL (≈ 0.453 µM)
Citrobacter freundii
  MIC: 0.15 µg/mL (≈ 0.453 µM)

## COc1cc(C=O)cc(CN2CCN(c3cc4c(cc3F)c(=O)c(C(=O)O)cn4C3CC3)CC2)c1O
Escherichia coli [14]
  MIC: 0.012 µg/mL (≈ 0.0242 µM)
Klebsiella pneumoniae
  MIC: 0.012 µg/mL (≈ 0.0242 µM)
Pseudomonas aeruginosa [8]
  MIC: 0.012 µg/mL (≈ 0.0242 µM)
Staphylococcus aureus [5]
  MIC: 0.012 µg/mL (≈ 0.0242 µM)
Staphylococcus aureus [6]
  MIC: 0.012 µg/mL (≈ 0.0242 µM)

## CCn1cc(C(=O)O)c(=O)c2cc(F)c(N3CCN(C(=O)CN4C(=O)S/C(=C\c5ccc(F)cc5)C4=O)CC3)cc21
Escherichia coli [14]
  MIC: 0.25 µg/mL (≈ 0.429 µM)
Pseudomonas aeruginosa [8]
  MIC: 0.25 µg/mL (≈ 0.429 µM)
Salmonella enteritidis
  MIC: 0.25 µg/mL (≈ 0.429 µM)

## CCn1cc(C(=O)O)c(=O)c2cc(F)c(N3CCN(Cc4nnc(-c5cccc(OC)c5)o4)CC3)cc21
Staphylococcus aureus [1]
  MIC: 2 µg/mL (≈ 3.94 µM)
Staphylococcus aureus [15]
  MIC: 0.5 µg/mL (≈ 0.985 µM)
Staphylococcus aureus [16]
  MIC: 0.5 µg/mL (≈ 0.985 µM)
Staphylococcus aureus [17]
  MIC: 1 µg/mL (≈ 1.97 µM)
Staphylococcus aureus [18]
  Ratio: 2
Staphylococcus aureus [19]
  Ratio: 2
Staphylococcus aureus [20]
  Ratio: 2

## O=C(O)c1cn(-c2ccc(F)cc2)c2cc(N3CCN(Cc4nc5ccccc5c(=O)[nH]4)CC3)c(F)cc2c1=O
Staphylococcus aureus [1]
  MIC: 0.125 µg/mL (≈ 0.23 µM)
Staphylococcus aureus [2]
  MIC: 0.125 µg/mL (≈ 0.23 µM)

## CCn1cc(C(=O)O)c(=O)c2cc(F)c(N3CCN(Cc4nnc(-c5ccc(OC)cc5)o4)CC3)cc21
Staphylococcus aureus [1]
  MIC: 0.25 µg/mL (≈ 0.493 µM)
Staphylococcus aureus [15]
  MIC: 0.25 µg/mL (≈ 0.493 µM)
Staphylococcus aureus [16]
  MIC: 0.25 µg/mL (≈ 0.493 µM)
Staphylococcus aureus [17]
  MIC: 0.25 µg/mL (≈ 0.493 µM)

## COc1c(N2CCN(/N=N/c3nc(C)cc(C)n3)CC2)c(F)cc2c(=O)c(C(=O)C(C(C)=O)C(C)=O)cn(C3CC3)c12
Staphylococcus aureus [1]
  MIC: 0.015 µg/mL (≈ 0.026 µM)
[7]
  MIC: 0.015 µg/mL (≈ 0.026 µM)
Bacillus subtilis
  MIC: 0.015 µg/mL (≈ 0.026 µM)

## CC(Cl)C(=O)OC1CC2CCC(C1)N2c1c(F)cc2c(=O)c(C(=O)O)cn3c2c1OC[C@@H]3C (stereo partly drawn)
Staphylococcus aureus [21]
  MIC: ≤ 0.5 µg/mL
Staphylococcus aureus [22]
  MIC: ≤ 0.5 µg/mL
Staphylococcus aureus [23]
  Ratio: 4

## COc1ccc2nc(CN3CCN(c4cc5c(cc4F)c(=O)c(C(=O)O)cn5C4CC4)CC3)[nH]c(=O)c2c1
Staphylococcus aureus [1]
  MIC: 0.016 µg/mL (≈ 0.0308 µM)
Staphylococcus aureus [2]
  MIC: 0.016 µg/mL (≈ 0.0308 µM)

## O=C(O)c1cn(C2CC2)c2cc(N3CCN(CN4c5ccccc5C(=O)N(c5ccc(Cl)cc5)C4c4ccccc4)CC3)c(F)cc2c1=O (stereo not drawn)
Klebsiella pneumoniae
  MIC: 0.1 µg/mL (≈ 0.147 µM)
Pseudomonas aeruginosa [8]
  MIC: 0.1 µg/mL (≈ 0.147 µM)
Staphylococcus aureus [1]
  MIC: 0.1 µg/mL (≈ 0.147 µM)
[7]
  MIC: 0.1 µg/mL (≈ 0.147 µM)
[10]
  MIC: 0.1 µg/mL (≈ 0.147 µM)
Vibrio cholerae
  MIC: 0.1 µg/mL (≈ 0.147 µM)
Shigella flexneri
  MIC: 0.1 µg/mL (≈ 0.147 µM)
Citrobacter freundii
  MIC: 0.1 µg/mL (≈ 0.147 µM)

## Cc1ncc([N+](=O)[O-])n1CCO [METRONIDAZOLE]
Clostridioides difficile
  MIC50: 2 µg/mL (≈ 11.7 µM)
  MIC90: 4 µg/mL (≈ 23.4 µM)

## O=C(O)c1cn(-c2ccc(F)cc2)c2cc(N3CCN(Cc4nc5cc(Cl)ccc5c(=O)[nH]4)CC3)c(F)cc2c1=O
Staphylococcus aureus [1]
  MIC: 0.125 µg/mL (≈ 0.216 µM)
Staphylococcus aureus [2]
  MIC: 0.125 µg/mL (≈ 0.216 µM)

## C[C@H]1COc2c(N3C4CCC3CC(OC(=O)CCl)C4)c(F)cc3c(=O)c(C(=O)O)cn1c23 (stereo partly drawn)
Staphylococcus aureus [21]
  MIC: ≤ 0.5 µg/mL
Staphylococcus aureus [22]
  MIC: ≤ 0.5 µg/mL
Staphylococcus aureus [23]
  Ratio: 4

## CCn1cc(C(=O)O)c(=O)c2cc(F)c(N3CCN(C(=O)CN4C(=O)S/C(=C\c5ccc(N(C)C)cc5)C4=O)CC3)cc21
Escherichia coli [14]
  MIC: 0.25 µg/mL (≈ 0.411 µM)
Pseudomonas aeruginosa [8]
  MIC: 0.25 µg/mL (≈ 0.411 µM)
Salmonella enteritidis
  MIC: 0.25 µg/mL (≈ 0.411 µM)
